Test results from patent US10294202B2, “Pyrrolidinones as herbicides” (FMC Corporation, priority 2013, dated 2019).

How the values were obtained:
pigweed = experiment: Test A pre-/postemergence herbicide test; assay type: in vivo, Amaranthus retroflexus
Summary of the method: (§1)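 Scoring was visual, relative to untreated controls, on a 0–100 scale after about 10 greenhouse days. Preemergence treatment used a directed soil spray over seeded loam/sand; postemergence treatment targeted one- to two-leaf plants of 2–10 cm.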

corn = experiment: Test A pre-/postemergence herbicide test; assay type: in vivo, Zea mays
Summary of the method: as §1

ducksalad = experiment: Test C flooded paddy test; assay type: in vivo, Heteranthera limosa; details: Flood
Summary of the method: (§2)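 Plants at the 2-leaf stage in pots flooded to 3 cm were treated by applying compound directly to the paddy water, with depth held throughout. After 13 to 15 days in a greenhouse, response was rated visually against controls on a 0 (no effect) to 100 (complete control) scale.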

barnyardgrass [1] = experiment: Test A pre-/postemergence herbicide test; assay type: in vivo, Echinochloa crus-galli
Summary of the method: as §1

wheat = experiment: Test A pre-/postemergence herbicide test; assay type: in vivo, Triticum aestivum
Summary of the method: as §1

rice = experiment: Test C flooded paddy test; assay type: in vivo, Oryza sativa; details: Flood
Summary of the method: as §2

velvetleaf = experiment: Test A pre-/postemergence herbicide test; assay type: in vivo, Abutilon theophrasti
Summary of the method: as §1

crabgrass, large = experiment: Test A pre-/postemergence herbicide test; assay type: in vivo, Digitaria sanguinalis
Summary of the method: as §1

morningglory = experiment: Test A pre-/postemergence herbicide test; assay type: in vivo, Ipomoea spp.
Summary of the method: as §1

giant foxtail = experiment: Test A pre-/postemergence herbicide test; assay type: in vivo, Setaria faberii
Summary of the method: as §1

sedge, umbrella = experiment: Test C flooded paddy test; assay type: in vivo, Cyperus difformis; details: Flood
Summary of the method: as §2

barnyardgrass [2] = experiment: Test C flooded paddy test; assay type: in vivo, Echinochloa crus-galli; details: Flood
Summary of the method: as §2

[3] = Postemergence, 1000 g ai/ha, 0 to 100 scale (0 no effect, 100 complete control)
[4] = Preemergence, 1000 g ai/ha, visual rating on 0 to 100 scale (0 no effect, 100 complete control), approx. 10 days
[5] = 62 g ai/ha, scale of 0 to 100 where 0 is no effect and 100 is complete control, 13 to 15 days
[6] = Postemergence, 125 g ai/ha, 0 to 100 scale, 0 no effect, 100 complete control
[7] = Postemergence, 500 g ai/ha, 0 to 100 scale (0 no effect, 100 complete control)
[8] = Preemergence, 125 g ai/ha, visual rating on 0 to 100 scale (0 no effect, 100 complete control)
[9] = preemergence, 500 g ai/ha, 0 to 100 scale
[10] = 31 g ai/ha, scale of 0 to 100 where 0 is no effect and 100 is complete control, 13 to 15 days
[11] = 125 g ai/ha, scale of 0 to 100 where 0 is no effect and 100 is complete control, 13 to 15 days
[12] = preemergence, 500 g ai/ha, 0 to 100 scale (0 no effect, 100 complete control)

Compound: O=C1NCC(c2ccc(Cl)c(Cl)c2)C1C(=O)Nc1cccc(F)c1 (racemic) [Compound 27]
- Plant response rating, Pigweed (pigweed; [3]): 0
- Plant response rating, Pigweed (pigweed; [4]): 0
- Plant response rating, Corn (corn; [3]): 0
- Plant response rating, Corn (corn; [4]): 0
- Plant response rating, Ducksalad (ducksalad; [5]): 0
- Plant response rating, Ducksalad (ducksalad; 250 g ai/ha, scale 0 to 100): 30
- Plant response rating, Barnyardgrass (barnyardgrass [1]; [3]): 70
- Plant response rating, Barnyardgrass (barnyardgrass [1]; [4]): 70
- Plant response rating, Wheat (wheat; [3]): 0
- Plant response rating, Wheat (wheat; [4]): 0
- Plant response rating, Rice (rice; [5]): 0
- Plant response rating, Rice (rice; 250 g ai/ha, scale 0 to 100): 0
- Plant response rating, Velvetleaf (velvetleaf; [3]): 0
- Plant response rating, Velvetleaf (velvetleaf; [4]): 0
- Plant response rating, Crabgrass, Large (crabgrass, large; [3]): 70
- Plant response rating, Crabgrass, Large (crabgrass, large; [4]): 90
- Plant response rating, Morningglory (morningglory; [3]): 0
- Plant response rating, Morningglory (morningglory; [4]): 0
- Plant response rating, Foxtail, Giant (giant foxtail; [3]): 60
- Plant response rating, Foxtail, Giant (giant foxtail; [4]): 90
- Plant response rating, Sedge, Umbrella (sedge, umbrella; [5]): 0
- Plant response rating, Sedge, Umbrella (sedge, umbrella; 250 g ai/ha, scale 0 to 100): 0
- Plant response rating, Barnyardgrass (barnyardgrass [2]; [5]): 0
- Plant response rating, Barnyardgrass (barnyardgrass [2]; 250 g ai/ha, scale 0 to 100): 0

Compound: O=C1NCC(c2ccsc2)C1C(=O)Nc1ccccc1C(F)(F)F (racemic) [Compound 28]
- Plant response rating, Pigweed (pigweed; [6]): 0
- Plant response rating, Pigweed (pigweed; [7]): 0
- Pigweed plant response rating (pigweed; [8]): 0
- Plant response rating, Pigweed (pigweed; [9]): 0
- Plant response rating, Corn (corn; [6]): 0
- Plant response rating, Corn (corn; [7]): 0
- Corn plant response rating (corn; [8]): 0
- Plant response rating, Corn (corn; [9]): 0
- Plant response rating, Ducksalad (ducksalad; [10]): 20
- Plant response rating, Ducksalad (ducksalad; [5]): 30
- Plant response rating, Ducksalad (ducksalad; [11]): 40
- Plant response rating, Ducksalad (ducksalad; 250 g ai/ha, scale 0 to 100): 85
- Plant response rating, Barnyardgrass (barnyardgrass [1]; [6]): 0
- Plant response rating, Barnyardgrass (barnyardgrass [1]; [7]): 0
- Barnyardgrass plant response rating (barnyardgrass [1]; [8]): 0
- Plant response rating, Barnyardgrass (barnyardgrass [1]; [12]): 20
- Plant response rating, Wheat (wheat; [6]): 0
- Plant response rating, Wheat (wheat; [7]): 0
- Wheat plant response rating (wheat; [8]): 0
- Plant response rating, Wheat (wheat; [9]): 0
- Plant response rating, Rice (rice; [10]): 0
- Plant response rating, Rice (rice; [5]): 0
- Plant response rating, Rice (rice; [11]): 0
- Plant response rating, Rice (rice; 250 g ai/ha, scale 0 to 100): 0
- Plant response rating, Velvetleaf (velvetleaf; [7]): 0
- Velvetleaf plant response rating (velvetleaf; [8]): 0
- Plant response rating, Velvetleaf (velvetleaf; [9]): 0
- Plant response rating, Crabgrass, Large (crabgrass, large; [6]): 20
- Plant response rating, Crabgrass, Large (crabgrass, large; [7]): 40
- Crabgrass, Large plant response rating (crabgrass, large; [8]): 30
- Plant response rating, Crabgrass, Large (crabgrass, large; [9]): 80
- Plant response rating, Morningglory (morningglory; [6]): 0
- Plant response rating, Morningglory (morningglory; [7]): 0
- Morningglory plant response rating (morningglory; [8]): 0
- Plant response rating, Morningglory (morningglory; [9]): 0
- Plant response rating, Foxtail, Giant (giant foxtail; [6]): 0
- Plant response rating, Foxtail, Giant (giant foxtail; [7]): 0
- Foxtail, Giant plant response rating (giant foxtail; [8]): 0
- Plant response rating, Foxtail, Giant (giant foxtail; [9]): 20
- Plant response rating, Sedge, Umbrella (sedge, umbrella; [10]): 0
- Plant response rating, Sedge, Umbrella (sedge, umbrella; [5]): 0
- Plant response rating, Sedge, Umbrella (sedge, umbrella; [11]): 0
- Plant response rating, Sedge, Umbrella (sedge, umbrella; 250 g ai/ha, scale 0 to 100): 0
- Plant response rating, Barnyardgrass (barnyardgrass [2]; [10]): 0
- Plant response rating, Barnyardgrass (barnyardgrass [2]; [5]): 0
- Plant response rating, Barnyardgrass (barnyardgrass [2]; [11]): 0
- Plant response rating, Barnyardgrass (barnyardgrass [2]; 250 g ai/ha, scale 0 to 100): 0

Compound: O=C1NCC(c2ccc(F)c(F)c2)C1C(=O)Nc1cccc(F)c1F (racemic) [Compound 107]
- Plant response rating, Pigweed (pigweed; [6]): 0
- Plant response rating, Pigweed (pigweed; [7]): 30
- Pigweed plant response rating (pigweed; [8]): 0
- Plant response rating, Pigweed (pigweed; [9]): 20
- Plant response rating, Corn (corn; [6]): 0
- Plant response rating, Corn (corn; [7]): 0
- Corn plant response rating (corn; [8]): 0
- Plant response rating, Corn (corn; [9]): 0
- Plant response rating, Ducksalad (ducksalad; [11]): 0
- Plant response rating, Ducksalad (ducksalad; 250 g ai/ha, scale 0 to 100): 30
- Plant response rating, Ducksalad (ducksalad; 500 g ai/ha, scale 0 to 100): 60
- Plant response rating, Ducksalad (ducksalad; 1000 g ai/ha, scale 0 to 100): 70
- Plant response rating, Barnyardgrass (barnyardgrass [1]; [6]): 50
- Plant response rating, Barnyardgrass (barnyardgrass [1]; [7]): 80
- Barnyardgrass plant response rating (barnyardgrass [1]; [8]): 20
- Plant response rating, Barnyardgrass (barnyardgrass [1]; [12]): 70
- Plant response rating, Wheat (wheat; [6]): 0
- Plant response rating, Wheat (wheat; [7]): 0
- Wheat plant response rating (wheat; [8]): 0
- Plant response rating, Wheat (wheat; [9]): 0
- Plant response rating, Rice (rice; [11]): 0
- Plant response rating, Rice (rice; 250 g ai/ha, scale 0 to 100): 0
- Plant response rating, Rice (rice; 500 g ai/ha, scale 0 to 100): 0
- Plant response rating, Rice (rice; 1000 g ai/ha, scale 0 to 100): 0
- Plant response rating, Velvetleaf (velvetleaf; [6]): 0
- Plant response rating, Velvetleaf (velvetleaf; [7]): 20
- Velvetleaf plant response rating (velvetleaf; [8]): 0
- Plant response rating, Velvetleaf (velvetleaf; [9]): 0
- Plant response rating, Crabgrass, Large (crabgrass, large; [6]): 60
- Plant response rating, Crabgrass, Large (crabgrass, large; [7]): 70
- Crabgrass, Large plant response rating (crabgrass, large; [8]): 80
- Plant response rating, Crabgrass, Large (crabgrass, large; [9]): 90
- Plant response rating, Morningglory (morningglory; [6]): 0
- Plant response rating, Morningglory (morningglory; [7]): 40
- Morningglory plant response rating (morningglory; [8]): 0
- Plant response rating, Morningglory (morningglory; [9]): 0
- Plant response rating, Foxtail, Giant (giant foxtail; [6]): 10
- Plant response rating, Foxtail, Giant (giant foxtail; [7]): 70
- Foxtail, Giant plant response rating (giant foxtail; [8]): 70
- Plant response rating, Foxtail, Giant (giant foxtail; [9]): 80
- Plant response rating, Sedge, Umbrella (sedge, umbrella; [11]): 0
- Plant response rating, Sedge, Umbrella (sedge, umbrella; 250 g ai/ha, scale 0 to 100): 0
- Plant response rating, Sedge, Umbrella (sedge, umbrella; 500 g ai/ha, scale 0 to 100): 0
- Plant response rating, Sedge, Umbrella (sedge, umbrella; 1000 g ai/ha, scale 0 to 100): 0
- Plant response rating, Barnyardgrass (barnyardgrass [2]; [11]): 0
- Plant response rating, Barnyardgrass (barnyardgrass [2]; 250 g ai/ha, scale 0 to 100): 0
- Plant response rating, Barnyardgrass (barnyardgrass [2]; 500 g ai/ha, scale 0 to 100): 0
- Plant response rating, Barnyardgrass (barnyardgrass [2]; 1000 g ai/ha, scale 0 to 100): 20
